# Assay results as given in ChEMBL document CHEMBL1137492, “Phenylethyl-substituted pyrimido[2,1-f]purinediones and related compounds: structure-activity relationships as adenosine A(1) and A(2A) receptor ligands” (Bioorg Med Chem, 2007).
# Legend:
# Adenosine receptor A2b = biological target: T1, Adenosine receptor A2b (Homo sapiens, UniProt P29275); assay: Displacement of [3H]ZM-241385 from human adenosine A2B receptor expressed in CHO cells; type: cell-based
# T1 sequence (P29275 whole entry): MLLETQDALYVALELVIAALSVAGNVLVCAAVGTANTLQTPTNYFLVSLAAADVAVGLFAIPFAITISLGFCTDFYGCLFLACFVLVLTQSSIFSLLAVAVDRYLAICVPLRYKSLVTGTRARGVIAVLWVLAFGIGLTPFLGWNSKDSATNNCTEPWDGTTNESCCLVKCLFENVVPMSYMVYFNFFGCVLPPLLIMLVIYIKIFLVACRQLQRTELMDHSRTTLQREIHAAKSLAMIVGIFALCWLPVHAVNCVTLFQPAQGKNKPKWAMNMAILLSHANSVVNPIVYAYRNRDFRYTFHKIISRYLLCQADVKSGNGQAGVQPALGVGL
# Adenosine receptor A2a [1] = biological target: Adenosine receptor A2a (Rattus norvegicus, UniProt P30543)
# Sequence of Adenosine receptor A2a (Rattus norvegicus, UniProt P30543) (P30543 whole entry): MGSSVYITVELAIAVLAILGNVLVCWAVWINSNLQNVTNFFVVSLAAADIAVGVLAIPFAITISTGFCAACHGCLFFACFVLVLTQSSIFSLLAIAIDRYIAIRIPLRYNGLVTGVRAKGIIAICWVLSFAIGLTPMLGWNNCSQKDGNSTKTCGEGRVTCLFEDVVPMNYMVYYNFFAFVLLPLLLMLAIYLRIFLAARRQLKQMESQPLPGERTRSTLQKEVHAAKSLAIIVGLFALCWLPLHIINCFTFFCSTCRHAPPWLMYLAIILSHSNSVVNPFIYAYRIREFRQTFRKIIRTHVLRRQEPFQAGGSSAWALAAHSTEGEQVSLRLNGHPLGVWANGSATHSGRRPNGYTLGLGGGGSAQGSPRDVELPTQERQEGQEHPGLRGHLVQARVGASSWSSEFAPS
# Adenosine receptor A1 [2] = biological target: T2, Adenosine receptor A1 (Rattus norvegicus, UniProt P25099); assay: Displacement of [3H]CCPA from adenosine A1 receptor in rat brain cortical membrane; type: cell membranes
# T2 sequence (P25099 whole entry): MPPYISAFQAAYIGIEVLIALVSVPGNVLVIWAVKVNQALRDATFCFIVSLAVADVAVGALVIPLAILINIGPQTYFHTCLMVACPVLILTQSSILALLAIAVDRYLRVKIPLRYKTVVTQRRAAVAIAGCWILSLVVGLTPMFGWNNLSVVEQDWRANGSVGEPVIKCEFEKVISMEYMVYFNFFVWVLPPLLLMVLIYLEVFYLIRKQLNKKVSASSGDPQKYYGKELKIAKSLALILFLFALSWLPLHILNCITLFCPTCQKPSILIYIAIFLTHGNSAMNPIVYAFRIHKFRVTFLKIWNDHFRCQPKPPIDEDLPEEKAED
# Adenosine receptor A3 [3] = biological target: T3, Adenosine receptor A3 (Homo sapiens, UniProt P0DMS8); assay: Displacement of [3H]PSB11 from human adenosine A3 receptor expressed in CHO cells; type: cell-based
# T3 sequence (P0DMS8 whole entry): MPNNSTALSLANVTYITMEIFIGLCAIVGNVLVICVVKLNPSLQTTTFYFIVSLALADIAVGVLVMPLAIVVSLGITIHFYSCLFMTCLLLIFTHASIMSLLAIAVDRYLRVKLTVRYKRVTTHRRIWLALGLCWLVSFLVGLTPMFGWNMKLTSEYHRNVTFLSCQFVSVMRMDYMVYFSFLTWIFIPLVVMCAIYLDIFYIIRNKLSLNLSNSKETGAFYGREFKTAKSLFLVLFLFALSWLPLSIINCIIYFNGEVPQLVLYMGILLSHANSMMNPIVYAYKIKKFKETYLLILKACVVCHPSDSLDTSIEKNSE
# Mus musculus [4] = assay: Toxicity in Albino F1 mouse assessed as continuous seizure at 100 mg/kg after 0.5 hrs; type: organism-based; set-up: dose 100 mg/kg; conditions: in vivo
# [5] = biological target: Adenosine receptor A2a (Rattus norvegicus) (UniProt P30543); assay: Displacement of [3H]MSX2 from adenosine A2A receptor in rat brain striatal membrane at 10 uM; type: cell membranes
# Sequence of Adenosine receptor A2a (Rattus norvegicus) (P30543 whole entry): as the sequence (P30543 whole entry) above
# Mus musculus [6] = assay: Toxicity in Albino F1 mouse assessed as death following tonic extension at 300 mg/kg after 0.5 hrs; conditions: in vivo
# [7] = biological target: Adenosine receptor A1 (Rattus norvegicus) (UniProt P25099); assay: Displacement of [3H]CCPA from adenosine A1 receptor in rat brain cortical membrane at 10 uM
# [8] = biological target: T4, Adenosine receptor A2b (Homo sapiens) (UniProt P29275); assay: Displacement of [3H]PSB298 from human adenosine A2B receptor expressed in CHO cells at 10 uM; type: cell-based
# T4 sequence (whole entry): T1 sequence (P29275 whole entry)
# Adenosine receptor A3 [9] = biological target: T3, Adenosine receptor A3; assay: (§1) Displacement of [3H]PSB11 from human adenosine A3 receptor expressed in CHO cells at 10 uM; type: cell-based
# [10] = biological target: T5, Adenosine receptor A1 (Homo sapiens) (UniProt P30542); assay: Displacement of [3H]CCPA from human adenosine A1 receptor expressed in CHO cells at 25 uM; type: cell-based
# T5 sequence (whole entry): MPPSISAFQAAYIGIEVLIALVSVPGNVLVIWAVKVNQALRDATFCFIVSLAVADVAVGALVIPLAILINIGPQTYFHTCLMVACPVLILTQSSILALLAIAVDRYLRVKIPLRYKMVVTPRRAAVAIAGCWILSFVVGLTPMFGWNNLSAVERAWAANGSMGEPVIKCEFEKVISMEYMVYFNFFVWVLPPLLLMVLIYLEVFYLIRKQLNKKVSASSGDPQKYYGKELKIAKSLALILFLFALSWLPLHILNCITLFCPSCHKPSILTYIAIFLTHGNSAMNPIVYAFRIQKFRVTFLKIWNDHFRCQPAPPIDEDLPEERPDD
# Adenosine receptor A1 [11] = biological target: T6, Adenosine receptor A1 (Homo sapiens, UniProt P30542); assay: Displacement of [3H]CCPA from human adenosine A1 receptor expressed in CHO cells; type: cell-based
# T6 sequence (P30542 whole entry): T5 sequence (whole entry)
# [12] = biological target: Adenosine receptor A2a (Rattus norvegicus) (UniProt P30543); assay: Displacement of [3H]MSX2 from adenosine A2A receptor in rat brain striatal membrane at 25 uM; type: cell membranes
# Adenosine receptor A2a [13] = biological target: Adenosine receptor A2a (Homo sapiens, UniProt P29274); assay: Displacement of [3H]MSX2 from human adenosine A2A receptor expressed in CHO cells; type: cell-based
# Sequence of Adenosine receptor A2a (Homo sapiens, UniProt P29274) (P29274 whole entry): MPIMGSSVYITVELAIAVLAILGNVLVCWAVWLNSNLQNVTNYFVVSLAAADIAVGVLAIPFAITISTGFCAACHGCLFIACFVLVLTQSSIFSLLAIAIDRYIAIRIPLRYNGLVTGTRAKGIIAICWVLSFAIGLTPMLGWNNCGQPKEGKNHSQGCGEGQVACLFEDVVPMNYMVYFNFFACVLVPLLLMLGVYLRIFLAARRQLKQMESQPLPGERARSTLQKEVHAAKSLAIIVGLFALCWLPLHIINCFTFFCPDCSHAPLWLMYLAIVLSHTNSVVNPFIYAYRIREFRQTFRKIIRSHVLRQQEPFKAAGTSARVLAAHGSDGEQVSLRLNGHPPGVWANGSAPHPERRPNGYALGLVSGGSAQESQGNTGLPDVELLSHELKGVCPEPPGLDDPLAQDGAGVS
# [14] = biological target: T4, Adenosine receptor A2b (Homo sapiens); assay: Displacement of [3H]ZM-241385 from human adenosine A2B receptor expressed in CHO cells at 10 uM; type: cell-based
# Mus musculus [15] = assay: Toxicity in Albino F1 mouse assessed as tonic extension followed by death at 30 mg/kg after 0.5 hrs; type: organism-based; set-up: dose 30 mg/kg; conditions: in vivo
# [16] = biological target: Adenosine receptor A1 (Rattus norvegicus) (UniProt P25099); assay: Displacement of [3H]CCPA from adenosine A1 receptor in rat brain cortical membrane at 25 uM
# Mus musculus [17] = assay: Toxicity in Albino F1 mouse assessed as continuous seizure followed by death at 100 mg/kg after 0.5 hrs; type: organism-based; set-up: dose 100 mg/kg; conditions: in vivo
# [18] = biological target: T7, Adenosine receptor A3 (Homo sapiens) (UniProt P0DMS8); assay: as §1; type: cell-based
# T7 sequence (whole entry): T3 sequence (P0DMS8 whole entry)
# Mus musculus [19] = assay: Toxicity in Albino F1 mouse assessed as tonic extension followed by death at 300 mg/kg after 0.5 hrs; type: organism-based; set-up: dose 300 mg/kg; conditions: in vivo
Ki (Adenosine receptor A2a [1]) [µM],Ki (Adenosine receptor A1 [2]) [µM],Ki (Adenosine receptor A3 [3]) [µM],Compound,other results
0.86,0.62,3.66,CCCn1c(=O)c2c(nc3n2CCCN3CCc2ccccc2)n(CCC)c1=O,Ki (Adenosine receptor A2b): 0.59 µM
1.1,1.99,,Cn1c(=O)c2c(nc3n2CCCN3CCCc2ccccc2)n(C)c1=O,Activity (Mus musculus [4]): Toxic
1.33,0.82,> 1,CCCn1c(=O)c2c(nc3n2CCCN3CCc2ccc(OC)c(OC)c2)n(CCC)c1=O,
20,7.55,,Cn1c(=O)c2c(nc3n2CCCN3CCNCc2ccccc2)n(C)c1=O,Ki (Adenosine receptor A2b): > 10 µM; Activity [8]: 27%
,25,> 10,Cn1c(=O)c2c(nc3n2CCCN3CCc2ccc(O)cc2)n(C)c1=O,Inhibition (Adenosine receptor A3 [9]): 9%; Activity [10]: 34%; Ki (Adenosine receptor A1 [11]): ≥ 25 µM
> 25,> 25,> 10,Cn1c(=O)c2c(nc3n2CCCN3CCc2ccccn2)n(C)c1=O,Ki (Adenosine receptor A2b): 13.4 µM; Activity [12]: 37%
4.6,10,> 1,Cc1ccc(OCCN2CCCn3c2nc2c3c(=O)n(C)c(=O)n2C)cc1,Activity [7]: 41%
1.09,3.5,,Cn1c(=O)c2c(nc3n2CCCN3CCOc2ccc(Cl)cc2Cl)n(C)c1=O,
0.37,3.85,,COc1ccc(CCN2CCCn3c2nc2c3c(=O)n(C)c(=O)n2C)cc1,
3.05,3.68,,Cn1c(=O)c2c(nc3n2CCCN3CCOCc2ccc(F)cc2)n(C)c1=O,
3.69,3.16,,Cn1c(=O)c2c(nc3n2CCCN3CCOCc2ccccc2)n(C)c1=O,
1.11,25,,Cn1c(=O)c2c(nc3n2CCCN3CC(O)c2ccccc2)n(C)c1=O (configuration not stated),Activity [16]: 49%
1.22,,,CC(=O)OC(c1ccccc1)C(C)N1CCCn2c1nc1c2c(=O)n(C)c(=O)n1C (configuration not stated),
0.9,1.79,> 1,CCCn1c(=O)c2c(nc3n2CCCN3CCc2c[nH]c3ccccc23)n(CCC)c1=O,
25,4.22,> 1,Cn1c(=O)c2c(nc3n2CCCN3CCOc2ccc(Cl)cc2)n(C)c1=O,Ki (Adenosine receptor A2b): 10 µM; Activity [12]: 49%; Activity [18]: 45%; Activity [14]: 44%
2.16,25,,CC(C(O)c1ccccc1)N1CCCn2c1nc1c2c(=O)n(C)c(=O)n1C (configuration not stated),Activity [16]: 45%
1.33,10,,Cn1c(=O)c2c(nc3n2CCCN3CCOCc2ccc(Cl)cc2)n(C)c1=O,Activity [7]: 48%
> 10,> 10,,Cn1c(=O)c2c(nc3n2CCCN3CCOC(=O)Nc2cccc(Cl)c2)n(C)c1=O,Activity [5]: 33%; Activity [7]: 10%
0.33,25,> 10,Cn1c(=O)c2c(nc3n2CCCN3CCc2c[nH]c3ccccc23)n(C)c1=O,Ki (Adenosine receptor A2b): 10 µM; Ki (Adenosine receptor A2a [13]): 4.56 µM; Inhibition (Adenosine receptor A3 [9]): 21%; Activity [10]: 21%; Activity [14]: 56%; Ki (Adenosine receptor A1 [11]): > 25 µM
14,2.63,,Cn1c(=O)c2c(nc3n2CCCN3CCNCc2ccc(F)cc2)n(C)c1=O,
2.02,10,> 1,CC(=O)Nc1ccc(OCCN2CCCn3c2nc2c3c(=O)n(C)c(=O)n2C)cc1,Activity [7]: 41%
1.21,≥ 25,,COc1ccc(CCN2CCCn3c2nc2c3c(=O)n(C)c(=O)n2C)cc1OC,Activity [16]: 33%
4.29,10,> 1,Cn1c(=O)c2c(nc3n2CCCN3CCOC/C=C/c2ccccc2)n(C)c1=O,Activity [7]: 36%
1,,,CC(=O)OC(CN1CCCn2c1nc1c2c(=O)n(C)c(=O)n1C)c1ccccc1 (configuration not stated),Activity [16]: 50%
> 10,> 10,,Cn1c(=O)c2c(nc3n2CCCN3CCOC(=O)Nc2ccccc2)n(C)c1=O,Activity [5]: 35%; Activity [7]: 3%

Compound,Ki (Adenosine receptor A2a [1]) [µM],Ki (Adenosine receptor A1 [2]) [µM],Ki (Adenosine receptor A3 [3]) [µM],other results
Cn1c(=O)c2c(nc3n2CCCN3CCOC(=O)Nc2ccc(Cl)cc2)n(C)c1=O,> 10,> 10,,Activity [5]: 32%; Activity (Mus musculus [6]): Toxic; Activity [7]: 24%
Cn1c(=O)c2c(nc3n2CCCN3CCc2ccccc2)n(C)c1=O,0.32,> 25,> 10,Ki (Adenosine receptor A2b): 10 µM; Ki (Adenosine receptor A2a [13]): 2.89 µM; Inhibition (Adenosine receptor A3 [9]): 20%; Activity [10]: 44%; Activity [14]: 57%; Ki (Adenosine receptor A1 [11]): > 10 µM; Activity (Mus musculus [15]): Toxic; Activity [16]: 31%
Cn1c(=O)c2c(nc3n2CCCN3CCOC(=O)Nc2ccc(F)cc2)n(C)c1=O,≥ 10,> 10,,Activity [5]: 42%; Activity [7]: 13%; Activity (Mus musculus [17]): Toxic
Cn1c(=O)c2c(nc3n2CCCN3CCc2ccc(Cl)cc2)n(C)c1=O,0.48,6.47,,Activity (Mus musculus [19]): Toxic
